In PMC3781056, “New Pyrazolopyrimidine Inhibitors of Protein Kinase D as Potent Anticancer Agents for Prostate Cancer Cells” (PLoS ONE, 2013):
Where a name gives a salt, the structure may show the parent alone.

Tested on: not given
Experiment: not given
Conditions: not given

Compound	melting point [°C]
COc1ccc(-c2nn(C)c3nc(Cl)nc(N)c23)cc1 [Compound 1j, 6-Chloro-3-(4-methoxyphenyl)-1-methyl-1H-pyrazolo[3,4-d]pyrimidin-4-amine]	> 250
CNc1nc(Cl)nc2c1c(-c1ccc(OC)cc1)nn2C [Compound 1k, 6-Chloro-3-(4-methoxyphenyl)-N,1-dimethyl-1H-pyrazolo[3,4-d]pyrimidin-4-amine]	159.3 to 160.9
CNc1ncnc2c1c(-c1ccc(OC)cc1)nn2C(C)(C)C [Compound 1c, 1-(t-Butyl)-3-(4-methoxyphenyl)-N-methyl-1H-pyrazolo[3,4-d]pyrimidin-4-amine]	89.3 to 91.2
CNc1ncnc2c1c(-c1cccc3ccccc13)nn2C(C)(C)C [Compound 1a, 1-(t-Butyl)-N-methyl-3-(naphthalen-1-yl)-1H-pyrazolo[3,4-d]pyrimidin-4-amine]	152.4 to 156.3
CNc1nc(Cl)nc2c1c(-c1ccc(F)cc1)nn2C [Compound 1o, 6-Chloro-3-(4-fluorophenyl)-N,1-dimethyl-1H-pyrazolo[3,4-d]pyrimidin-4-amine]	189.9 to 192.3
COc1ccc(-c2nn(C)c3ncnc(N)c23)cc1 [Compound 1h, 3-(4-Methoxyphenyl)-1-methyl-1H-pyrazolo[3,4-d]pyrimidin-4-amine]	185 to 188

Biological target: T1, PKD1 (Homo sapiens, UniProt Q15139)
T1 construct: GST; purchased Enzo Life sciences (Farmingdale, NY)
T1 sequence (Q15139 1-912): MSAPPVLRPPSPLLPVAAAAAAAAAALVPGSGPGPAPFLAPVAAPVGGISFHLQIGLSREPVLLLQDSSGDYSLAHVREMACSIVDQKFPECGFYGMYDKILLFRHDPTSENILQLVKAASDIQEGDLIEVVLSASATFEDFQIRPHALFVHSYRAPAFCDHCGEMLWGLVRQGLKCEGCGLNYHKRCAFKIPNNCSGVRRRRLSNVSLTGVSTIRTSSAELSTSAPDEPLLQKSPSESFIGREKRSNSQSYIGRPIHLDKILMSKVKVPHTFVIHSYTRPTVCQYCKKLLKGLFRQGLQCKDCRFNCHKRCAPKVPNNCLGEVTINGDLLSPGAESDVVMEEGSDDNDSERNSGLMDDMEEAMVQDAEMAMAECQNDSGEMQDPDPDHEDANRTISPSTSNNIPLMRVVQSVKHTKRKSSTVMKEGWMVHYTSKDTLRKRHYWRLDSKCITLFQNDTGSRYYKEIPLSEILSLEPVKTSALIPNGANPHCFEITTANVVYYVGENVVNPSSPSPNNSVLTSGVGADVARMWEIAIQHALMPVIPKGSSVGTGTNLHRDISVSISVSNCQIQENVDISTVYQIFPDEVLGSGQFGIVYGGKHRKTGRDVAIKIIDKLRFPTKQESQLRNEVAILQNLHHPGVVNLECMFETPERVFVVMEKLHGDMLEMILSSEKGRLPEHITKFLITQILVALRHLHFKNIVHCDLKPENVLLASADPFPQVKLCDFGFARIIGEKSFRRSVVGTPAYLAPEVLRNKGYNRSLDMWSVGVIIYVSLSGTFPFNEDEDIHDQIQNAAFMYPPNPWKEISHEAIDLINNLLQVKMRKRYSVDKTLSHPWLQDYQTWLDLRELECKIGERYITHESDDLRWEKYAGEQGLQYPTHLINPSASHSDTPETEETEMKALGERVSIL
Experiment: In vitro radiometric PKD1 screening assay at 1 µM
Assay type: biochemical
Conditions: 1 µM; targeted kinase inhibitor library screen; relative to DMSO
Experimental: Phosphorylation of HDAC5 was detected in a kinase reaction having 1 µCi [γ-^32P] […] The reaction was incubated at 30°C for 10 minutes and 25 µL of the reaction was spotted on Whatman P81 filter paper. The filter paper was washed 3 times in 0.5% phosphoric acid, air dried and counted using Beckman LS6500 multipurpose scintillation counter. Percent PKD1 inhibition was graphed using GraphPad Prism software 5.0.

Compound	% PKD1 Inhibition [%]
NC(=O)c1ccc(-c2nc(-c3ccc4c(c3)OCCO4)c(-c3ccccn3)[nH]2)cc1 [D 4476]	45
O=C1Nc2cc(Br)ccc2/C1=C1/Nc2ccccc2/C1=N\O [BIO]	47
CS(=O)(=O)O.Cn1cc(C2=C(c3cn(CCCSC(=N)N)c4ccccc34)C(=O)NC2=O)c2ccccc21 [Ro 31-8220 Mesylate]	72
O=C1NC(=O)c2c1c1c3ccccc3[nH]c1c1[nH]c3ccccc3c21 [Arcyriaflavin A]	75
Cl.Cl.O=S(=O)(NCCNC/C=C/c1ccc(Br)cc1)c1cccc2cnccc12 [H 89 Dihydrochloride]	66
Fc1ccc(Cl)cc1-c1nc(Nc2ccncc2)c2nccnc2n1 [SD 208]	74
Cc1ccccc1C(=O)c1ccc(Nc2ccc(Br)cc2N)cc1Cl [EO 1428]	68
O=C1NC(=O)c2c1c1c3ccccc3n3c1c1c2c2ccccc2n1C1CCC3O1 [SB 218078]	85

Same assay, conditions: 1 µM; targeted kinase inhibitor library screen; relative to DMSO; read-out: % PKD1 Inhibition

Compound	inhibition at 1 µM [%]
Oc1c2ccccc2c2c3c(cccc13)N=N2 [SP 600125]	74
O=S(=O)(c1cccc2cnccc12)N1CCCNCC1 [Fasudil hydrochloride]	41

Same assay, conditions: SAR of synthesized 1-NA-PP1 analogs

Compound	PKD1 inhibitory activity, SAR result in words
COc1ccc(-c2nn(C)c3nc(Cl)nc(N)c23)cc1 [Compound 1j, 6-Chloro-3-(4-methoxyphenyl)-1-methyl-1H-pyrazolo[3,4-d]pyrimidin-4-amine]	did not show an increase in potency
CNc1nc(Cl)nc2c1c(-c1ccc(OC)cc1)nn2C [Compound 1k, 6-Chloro-3-(4-methoxyphenyl)-N,1-dimethyl-1H-pyrazolo[3,4-d]pyrimidin-4-amine]	did not show an increase in potency
CNc1ncnc2c1c(-c1cccc3ccccc13)nn2C(C)(C)C [Compound 1a, 1-(t-Butyl)-N-methyl-3-(naphthalen-1-yl)-1H-pyrazolo[3,4-d]pyrimidin-4-amine]	ablated the PKD1 activity
CNc1ncnc2c1c(-c1ccc(-c3ccccc3)cc1)nn2C [Compound 1p, 3-([1,1'-Biphenyl]-4-yl)-N,1-dimethyl-1H-pyrazolo[3,4-d]pyrimidin-4-amine]	did not show an increase in potency
CNc1nc(Cl)nc2c1c(-c1ccc(OC(F)(F)F)cc1)nn2C [Compound 1m, 6-Chloro-N,1-dimethyl-3-(4-(trifluoromethoxy)phenyl)-1H-pyrazolo[3,4-d]pyrimidin-4-amine]	did not show an increase in potency

Same assay, conditions: read-out: inhibition of PKD1 activity

Compound	inhibition at 1 µM [%]
Cn1nc(-c2cccc3ccccc23)c2c(N)ncnc21 [Compound 1f, 1-Methyl-3-(naphthalen-1-yl)-1H-pyrazolo[3,4-d]pyrimidin-4-amine]	32

Biological target: T2, PKCα (Homo sapiens, UniProt P17252)
T2 construct: purchased SignalChem (Richmond, BC, Canada)
Experiment: In vitro radiometric PKC kinase assay
Assay type: biochemical
Conditions: 0.1, 1 and 10 µM
Experimental: (§1) The PKC kinase assay was carried out by co-incubating 1 µCi [γ-^32P]ATP, 20 µM ATP, 50 ng of purified PKCα or PKCδ and 5 µg of myelin basic protein 4–14, 0.25 mg/mL bovine serum albumin, 0.1 mg/mL phosphatidylcholine/phosphatidylserine (80/20%) (1 µM), 1 µM phorbol dibutyrate in 50 µL of kinase buffer containing 50 mM Tris-HCl, pH 7.5, 4 mM MgCl2 and 10 mM β-mercaptoethanol. For the CAMK assay, 50 ng of CAMKIIα and 2 µg syntide-2 substrate in 50 µL kinase buffer were incubated with 0.1 mM MgCl2, 1 µCi of [γ-^32P] ATP, 70 µM ATP. 0.5 mM CaCl2 and 30 ng/µL calmodulin were preincubated for 15 min on ice and then added in the kinase reaction. The reactions were incubated at 30°C for 10 min and 25 µL of the reaction was spotted on Whatman P81 filter paper. The filter paper was washed 3 times in 0.5% phosphoric acid, air dried and counted using Beckman LS6500 multipurpose scintillation counter.

Compound	inhibition of PKCα, in words
CN(C)CCCn1cc(C2=C(c3c[nH]c4ccccc34)C(=O)NC2=O)c2ccccc21 [GF109203X, reference compound]	potently and concentration-dependently inhibited

Biological target: T3, PKCδ (Homo sapiens, UniProt Q05655)
T3 construct: purchased SignalChem (Richmond, BC, Canada)
Experiment: In vitro radiometric PKC kinase assay
Assay type: biochemical
Conditions: 0.1, 1 and 10 µM
Experimental: as §1

T3 sequence (Q05655 whole entry): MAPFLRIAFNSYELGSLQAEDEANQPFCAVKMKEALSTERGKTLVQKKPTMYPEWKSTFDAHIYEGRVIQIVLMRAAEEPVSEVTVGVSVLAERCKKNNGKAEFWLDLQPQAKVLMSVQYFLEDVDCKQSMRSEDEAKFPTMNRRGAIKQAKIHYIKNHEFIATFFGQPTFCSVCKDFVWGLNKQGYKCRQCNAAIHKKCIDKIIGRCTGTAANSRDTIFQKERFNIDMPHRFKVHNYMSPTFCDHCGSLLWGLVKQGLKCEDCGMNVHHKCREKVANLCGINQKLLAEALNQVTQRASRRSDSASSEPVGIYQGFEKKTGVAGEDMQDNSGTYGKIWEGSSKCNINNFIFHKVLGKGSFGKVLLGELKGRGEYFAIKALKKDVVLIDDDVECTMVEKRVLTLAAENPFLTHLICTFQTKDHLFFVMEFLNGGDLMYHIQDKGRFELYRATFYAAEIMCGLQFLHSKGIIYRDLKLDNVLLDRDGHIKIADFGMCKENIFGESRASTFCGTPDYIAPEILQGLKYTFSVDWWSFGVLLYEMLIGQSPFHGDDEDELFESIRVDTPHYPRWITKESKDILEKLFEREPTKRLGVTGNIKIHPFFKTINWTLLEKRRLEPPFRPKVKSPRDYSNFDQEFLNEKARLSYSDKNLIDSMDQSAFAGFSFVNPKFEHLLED

Compound	inhibition of PKCδ, in words
CN(C)CCCn1cc(C2=C(c3c[nH]c4ccccc34)C(=O)NC2=O)c2ccccc21 [GF109203X, reference compound]	potently and concentration-dependently inhibited
